test system: HepG2; assay: Anticancer activity against human HepG2 cells assessed as reduction in cell survival; assay type: functional, cell-based

SMILES | IC50 [µM]
CCCCCCCCCCCCC/C=C/[C@@H](O)[C@H](CO)NC(=O)CCCCCCCCCCCCC/C=C\CCCCCCCC[n+]1ccccc1 | 1
CCCCCCCCCCCCC/C=C/[C@@H](O)[C@H](CO)NC(=O)CCCCCCCCCCCCCCCCCCCCCCC | 189
CCCCCCCCCCCCC/C=C/[C@@H](O)[C@H](CO)NC(=O)CCCCCCCCCCCCCCCCCCCCCCC[n+]1ccccc1 | 9.9
CCCCCCCC/C=C\CCCCCCCCCCCCCC(=O)N[C@@H](CO)[C@H](O)/C=C/CCCCCCCCCCCCC | > 200
